Source: paper PMC11239955, “Phase 1 pharmacokinetic and safety study of soticlestat in participants with mild or moderate hepatic impairment or normal hepatic function” (Pharmacology Research & Perspectives, 2024)
Like-named read-outs stand apart in the source and are kept apart here.

Assays:
[1] = cited from earlier work
[2] = clinical; details: human, in vivo
Description: This was a phase 1, open‐label study of a single dose of oral soticlestat 300 mg with three treatment arms (NCT05098054)[25]: moderate hepatic impairment (Child‐Pugh B; score ≥7 and ≤9; anticipated enrollment n = 8); mild hepatic impairment (Child‐Pugh A; score ≥5 and ≤6; n = 8); and normal hepatic function (n = 12–24). Screening occurred at an outpatient visit up to 28 days before dosing. Participants were admitted to the clinic the day before dosing and remained until day 7. Follow‐up phone contact occurred 14 ± 2 days after dosing.
The moderate hepatic impairment arm was conducted first, followed by the matched normal hepatic function arm. After enrollment of the mild hepatic impairment arm, up to 12 additional participants could be enrolled for the matched normal hepatic function group to ensure a minimum of 12 participants with normal hepatic function and matching the mean of the mild hepatic impairment arm by age, sex, and BMI. Soticlestat was taken as three 100 mg immediate‐release tablets on day 1 with approximately 240 mL water under fasting conditions (≥10 h before dosing and 4 h post‐dose).
(§1) Medical history and demographic data were recorded at screening. Twelve‐lead ECG, pulse rate, and BP were taken 2, 24, and 144 h after dosing or at early termination, and respiratory rate and temperature were taken 24 and 144 h after dosing or at early termination. Hematology, coagulation, serum chemistry, and urine analysis were conducted 48 and 144 h after dosing or at early termination. Blood samples for pharmacokinetic assessments of soticlestat and its metabolites M‐I and M3 were taken predose and 0.133, 0.25, 0.5, 0.75, 1, 1.5, 2, 4, 6, 8, 10, 14, 24, 36, 48, 72, 96, 120, and 144 h after dose administration or at early termination. Blood samples for plasma protein binding were taken predose and 0.5 and 10 h after dose administration. TEAE monitoring occurred throughout the study and at follow‐up.
The study's primary endpoints were the following pharmacokinetic parameters for soticlestat: C max; area under the total plasma concentration‐time curve from time 0 to infinity (AUC∞); and AUC from time 0 to time of the last quantifiable total plasma concentration (AUClast). The incidences of TEAEs and clinically significant abnormal values for laboratory evaluations, vital signs, ECG parameters, and Columbia‐Suicide Severity Rating Scale were secondary objectives. Exploratory endpoints were plasma pharmacokinetic parameters of soticlestat metabolites M‐I and M3 (C max, AUC∞, AUClast, metabolite‐to‐parent ratio [MPR] C max, MPR AUClast, and MPR AUC∞); additional plasma pharmacokinetic parameters of soticlestat and the metabolites M‐I and M3 (time of first occurrence of C max [t max] and terminal disposition phase half‐life [t ½z]); additional plasma pharmacokinetic parameters of soticlestat (apparent clearance after extravascular administration, calculated using the observed value of the last quantifiable total plasma concentration [CL/F]; apparent volume of distribution during the terminal disposition phase after extravascular administration, calculated using the observed value of the last quantifiable total plasma concentration [Vz/F]); and plasma protein binding of soticlestat: fraction of unbound soticlestat.
Total soticlestat, M‐I, and M3 concentrations and unbound soticlestat concentrations were determined using liquid chromatography–tandem mass spectrometry by CMIC, Inc. (Hoffman Estates, IL, USA). Unbound plasma soticlestat concentrations were measured using ultrafiltration (by CMIC, Inc.). Pharmacokinetic parameters were calculated using Phoenix® WinNonlin® version 8.3.4.
Descriptive statistics were derived for the concentration data: number of observations (n), arithmetic mean (mean), standard deviation (SD), arithmetic percent coefficient of variation (CV%), standard error of the mean, minimum, median, and maximum. […]

[3] = clinical; format: in vitro ADME; details: human, plasma, Plasma protein binding, mean
Description: Medical history and demographic data were recorded at screening. Twelve‐lead ECG, pulse rate, and BP were taken 2, 24, and 144 h after dosing or at early termination, and respiratory rate and temperature were taken 24 and 144 h after dosing or at early termination. Hematology, coagulation, serum chemistry, and urine analysis were conducted 48 and 144 h after dosing or at early termination. […] Blood samples for plasma protein binding were taken predose and 0.5 and 10 h after dose administration. TEAE monitoring occurred throughout the study and at follow‐up. The study's primary endpoints were the following pharmacokinetic parameters for soticlestat: C max; area under the total plasma concentration‐time curve from time 0 to infinity (AUC∞); and AUC from time 0 to time of the last quantifiable total plasma concentration (AUClast). The incidences of TEAEs and clinically significant abnormal values for laboratory evaluations, vital signs, ECG parameters, and Columbia‐Suicide Severity Rating Scale were secondary objectives. […] Total soticlestat, M‐I, and M3 concentrations and unbound soticlestat concentrations were determined using liquid chromatography–tandem mass spectrometry by CMIC, Inc. (Hoffman Estates, IL, USA). Unbound plasma soticlestat concentrations were measured using ultrafiltration (by CMIC, Inc.). Pharmacokinetic parameters were calculated using Phoenix® WinNonlin® version 8.3.4.

[4] = Safety: treatment-emergent adverse events after single oral soticlestat 300 mg; format: in vivo, human
Description: as §1
The study's primary endpoints were the following pharmacokinetic parameters for soticlestat: C max; area under the total plasma concentration‐time curve from time 0 to infinity (AUC∞); and AUC from time 0 to time of the last quantifiable total plasma concentration (AUClast). The incidences of TEAEs and clinically significant abnormal values for laboratory evaluations, vital signs, ECG parameters, and Columbia‐Suicide Severity Rating Scale were secondary objectives. […]

[5] = test system: plasma protein; parameters: method as in PMID 37771051; details: human, cited from earlier work
[6] = parameters: method as in PMID 33837574; details: healthy volunteers, doses 15 to 1350 mg; cited from earlier work
[7] = molecular target: cholesterol 24‐hydroxylase (CH24H); details: no method or reference given; read-out: CH24H inhibition IC50; cited from earlier work
[8] = 300 mg dose of [14C]soticlestat

## O=C(c1cccnc1-c1ccncc1)N1CCC(O)(Cc2ccccc2)CC1 [soticlestat]
[1]; [8]
  Administered dose recovered in urine as this substance: 0.1%
  Recovery of total radioactivity in feces: 2.7%
  Recovery of total radioactivity in urine: 94.8%
[1]
  Excreted in urine: < 1%
  Share of soticlestat metabolism accounted for by UGT1A9 and UGT2B4: approximately 90%
[1]; healthy volunteers
  Absolute bioavailability: 12.6%
[2]
  Increase in total plasma exposure vs healthy matched participants (preliminary analysis): approximately 3 fold
  Total plasma AUClast higher vs healthy participants (preliminary analysis): approximately 3 fold
  Total plasma AUC∞ higher vs healthy participants (preliminary analysis): approximately 3 fold
[2]; po, 300 mg, Mean ± SD Vz/F, total plasma
  Vd/F: 890 ± 1900 L
[2]; po, 300 mg, Mean ± SD t½z, total plasma
  half-life: 219 ± 58.5 min
[2]; po, 300 mg, Median (range) tmax, total plasma
  Tmax: 30 min
[3]
  fraction unbound: 0.175
[4]; all study arms
  TEAEs based on serum chemistry, hematology, coagulation, urinalysis, vital signs, ECG, or Columbia-Suicide Severity Rating Scale: no TEAEs
[4]; in vivo
  Number of TEAEs considered study drug related: two
[5]; 0.1 μg/mL
  In vitro plasma protein binding: 94.0%
[5]; 1 μg/mL
  In vitro plasma protein binding: 93.4%
[5]; 10 μg/mL
  In vitro plasma protein binding: 70.6%
[5]
  Main binding protein in plasma: mainly bound to human α‐1‐acid glycoprotein
[6]
  Mean plasma maximum concentration (Cmax): 43.5 to 7950 ng/mL
  Terminal elimination half-life: 49.2 to 430 min
[7]
  IC50: 4.5 nM
